What was measured:
[1] = Metabolic pathways in human hepatocytes (fraction metabolized); format: in vitro ADME; settings: LC-MS/MS of metabolites
Description: To investigate differences in the metabolism of Compound 1-1 and R,R,R-DHTBZ in vitro both compounds were incubated with human hepatocytes and the amounts of metabolites formed via the respective demethylation, oxidation, and glucuronidation pathways were determined by LC-MS/MS. The instrument responses for all metabolites were assumed to be approximately equal. For both compounds the percentage of overall in vitro metabolism due to the respective pathways (fraction metabolized, fm) was calculated by dividing the LC/MS peak area of the metabolite(s) formed via a given pathway by the sum of the peak areas of all metabolites monitored. […] This demethylation is believed to be catalyzed by CYP2D6.

[2] = target: VMAT2 (human platelet homogenate) (Homo sapiens (Human), UniProt Q05940); test: Human VMAT2 Ki, slightly modified competition binding procedure (Table 11); settings: 10 nM 3H-dihydrotetrabenazine;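 also: competition binding with 90 min incubation at 25 °C, after which filter-retained radioligand was measured by scintillation counting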
VMAT2 (human platelet homogenate), sequence (Q05940 whole entry): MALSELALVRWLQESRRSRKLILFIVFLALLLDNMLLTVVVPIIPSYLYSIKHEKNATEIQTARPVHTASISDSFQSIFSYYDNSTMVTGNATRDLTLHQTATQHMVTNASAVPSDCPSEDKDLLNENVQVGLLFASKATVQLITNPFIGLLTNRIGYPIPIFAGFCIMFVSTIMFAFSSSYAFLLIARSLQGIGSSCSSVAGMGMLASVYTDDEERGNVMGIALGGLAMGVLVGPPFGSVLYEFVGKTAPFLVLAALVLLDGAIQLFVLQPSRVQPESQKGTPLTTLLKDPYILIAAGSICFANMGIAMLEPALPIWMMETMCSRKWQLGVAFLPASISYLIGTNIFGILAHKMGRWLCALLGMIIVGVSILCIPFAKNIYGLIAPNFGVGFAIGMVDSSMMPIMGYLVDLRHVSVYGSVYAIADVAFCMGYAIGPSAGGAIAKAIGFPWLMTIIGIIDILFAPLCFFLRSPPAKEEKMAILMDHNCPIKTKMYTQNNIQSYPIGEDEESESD

[3] = In vitro human intestinal S9 hydrolysis assay (formation of compound 1-1); settings: human intestinal S9, 1 uM, 37° C., up to 60 minutes
[4] = system: vesicular monoamine transporter-2 (VMAT2); settings: inhibition of catecholamine uptake by VMAT2, Scherman et al. 1983; cited from earlier work
[5] = target: VMAT2 (rat forebrain homogenate) (Rattus norvegicus (Rat), UniProt Q01827); settings: radioligand of the VMAT2 binding assay; cited from earlier work
VMAT2 (rat forebrain homogenate), sequence (Q01827 whole entry): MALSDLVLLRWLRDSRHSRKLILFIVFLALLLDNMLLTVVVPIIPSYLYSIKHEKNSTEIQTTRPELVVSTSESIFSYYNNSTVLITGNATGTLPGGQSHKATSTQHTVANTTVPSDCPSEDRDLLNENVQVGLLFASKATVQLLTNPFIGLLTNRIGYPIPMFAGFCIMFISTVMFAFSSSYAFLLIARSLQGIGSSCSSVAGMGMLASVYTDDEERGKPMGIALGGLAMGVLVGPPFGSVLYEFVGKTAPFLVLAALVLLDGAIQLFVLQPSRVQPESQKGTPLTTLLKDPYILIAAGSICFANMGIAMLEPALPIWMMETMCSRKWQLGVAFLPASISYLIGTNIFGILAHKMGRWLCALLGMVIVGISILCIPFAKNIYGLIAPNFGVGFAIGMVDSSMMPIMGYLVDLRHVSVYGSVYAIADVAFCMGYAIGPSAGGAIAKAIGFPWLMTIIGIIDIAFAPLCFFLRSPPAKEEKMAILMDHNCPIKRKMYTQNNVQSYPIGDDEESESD

primary metabolic pathway [1] | Ki [2] [nM] | S9 Assay (ability to form compound 1-1) [3] | Compound | IC50 [4] [nM] | Kd [5] [nM]
– | < 10 | + | COc1cc2c(cc1OC)[C@H]1C[C@@H](COC(=O)N3CCNCC3)[C@H](CC(C)C)CN1CC2 [Compound 6-1, [(2R,3S,11bR)-9,10-dimethoxy-3-(2-methylpropyl)-1H,2H,3H,4H,6H,7H,11bH-pyrido[2,1-a]isoquinolin-2-yl]methyl piperazine-1-carboxylate] | – | –
– | < 10 | ++ | COc1cc2c(cc1OC)[C@H]1C[C@@H](COC(=O)N3CCNC[C@@H]3C)[C@H](CC(C)C)CN1CC2 [Compound 6-5, [(2R,3S,11bR)-9,10-dimethoxy-3-(2-methylpropyl)-1H,2H,3H,4H,6H,7H,11bH-pyrido[2,1-a]isoquinolin-2-yl]methyl (2S)-2-methylpiperazine-1-carboxylate] | – | –
– | < 10 | + | COc1cc2c(cc1OC)[C@H]1C[C@@H](COC(=O)N3C[C@@H](C)N[C@@H](C)C3)[C@H](CC(C)C)CN1CC2 [Compound 6-6, [(2R,3S,11bR)-9,10-dimethoxy-3-(2-methylpropyl)-1H,2H,3H,4H,6H,7H,11bH-pyrido[2,1-a]isoquinolin-2-yl]methyl (3R,5S)-3,5-dimethylpiperazine-1-carboxylate] | – | –
– | < 10 | + | COc1cc2c(cc1OC)[C@H]1C[C@@H](COC(=O)N3CCNC[C@@H]3CO)[C@H](CC(C)C)CN1CC2 [Compound 6-7, [(2R,3S,11bR)-9,10-dimethoxy-3-(2-methylpropyl)-1H,2H,3H,4H,6H,7H,11bH-pyrido[2,1-a]isoquinolin-2-yl]methyl (2R)-2-(hydroxymethyl)piperazine-1-carboxylate] | – | –
– | 10 to 500 | + | COc1cc2c(cc1OC)[C@H]1C[C@@H](COC(=O)N3CCN[C@@H](C(=O)O)C3)[C@H](CC(C)C)CN1CC2 [Compound 6-8, (2R)-4-({[(2R,3S,11bR)-9,10-dimethoxy-3-(2-methylpropyl)-1H,2H,3H,4H,6H,7H,11bH-pyrido[2,1-a]isoquinolin-2-yl]methoxy}carbonyl)piperazine-2-carboxylic acid] | – | –
– | < 10 | + | COc1cc2c(cc1OC)[C@H]1C[C@@H](COC(=O)N3CC(C)NC(C)C3)[C@H](CC(C)C)CN1CC2 (stereo partly drawn) [Compound 6-11, [(2R,3S,11bR)-9,10-dimethoxy-3-(2-methylpropyl)-1H,2H,3H,4H,6H,7H,11bH-pyrido[2,1-a]isoquinolin-2-yl]methyl 3,5-dimethylpiperazine-1-carboxylate] | – | –
– | < 10 | + | COc1cc2c(cc1OC)[C@H]1C[C@@H](COC(=O)N3CCN[C@H](C)C3)[C@H](CC(C)C)CN1CC2 [Compound 6-13, [(2R,3S,11bR)-9,10-dimethoxy-3-(2-methylpropyl)-1H,2H,3H,4H,6H,7H,11bH-pyrido[2,1-a]isoquinolin-2-yl]methyl (3R)-3-methylpiperazine-1-carboxylate] | – | –

The remaining lines, values behind:

Compound | primary metabolic pathway [1] | Ki [2] [nM] | S9 Assay (ability to form compound 1-1) [3] | IC50 [4] [nM] | Kd [5] [nM]
COc1cc2c(cc1OC)[C@H]1C[C@@H](CO)[C@H](CC(C)C)CN1CC2 [Compound 1-1, [(2R,3S,11bR)-9,10-Dimethoxy-3-(2-methylpropyl)-1H,2H,3H,4H,6H,7H,11bH-pyrido[2,1-a]isoquinolin-2-yl]methanol] | primarily metabolized by glucuronidation | – | – | – | –
COc1cc2c(cc1OC)[C@H]1C[C@@H](COC(=O)N3CCC[C@@H](C(=O)O)C3)[C@H](CC(C)C)CN1CC2 [Compound 5-54, (3R)-1-({[(2R,3S,11bR)-9,10-dimethoxy-3-(2-methylpropyl)-1H,2H,3H,4H,6H,7H,11bH-pyrido[2,1-a]isoquinolin-2-yl]methoxy}carbonyl)piperidine-3-carboxylic acid] | – | > 500 | + | – | –
COc1cc2c(cc1OC)[C@H]1C[C@@H](COC(=O)NCC[C@H](O)C(=O)O)[C@H](CC(C)C)CN1CC2 [Compound 5-56, (2S)-4-[({[(2R,3S,11bR)-9,10-dimethoxy-3-(2-methylpropyl)-1H,2H,3H,4H,6H,7H,11bH-pyrido[2,1-a]isoquinolin-2-yl]methoxy}carbonyl)amino]-2-hydroxybutanoic acid] | – | 10 to 500 | + | – | –
COc1cc2c(cc1OC)[C@H]1C[C@@H](COC(=O)NCC(C)C(=O)O)[C@H](CC(C)C)CN1CC2 (stereo partly drawn) [Compound 5-57, 3-[({[(2R,3S,11bR)-9,10-dimethoxy-3-(2-methylpropyl)-1H,2H,3H,4H,6H,7H,11bH-pyrido[2,1-a]isoquinolin-2-yl]methoxy}carbonyl)amino]-2-methyIpropanoic acid] | – | > 500 | + | – | –
COc1cc2c(cc1OC)[C@H]1C[C@@H](COC(=O)N3CC4CCC(C3)N4)[C@H](CC(C)C)CN1CC2 [Compound 6-4, [(2R,3S,11bR)-9,10-dimethoxy-3-(2-methylpropyl)-1H,2H,3H,4H,6H,7H,11bH-pyrido[2,1-a]isoquinolin-2-yl]methyl 3,8-diazabicyclo[3.2.1]octane-3-carboxylate] | – | < 10 | + | – | –
COc1cc2c(cc1OC)[C@H]1C[C@@H](COC(=O)N3C[C@@H]4C[C@H]3CN4)[C@H](CC(C)C)CN1CC2 [Compound 6-10, [(2R,3S,11bR)-9,10-dimethoxy-3-(2-methylpropyl)-1H,2H,3H,4H,6H,7H,11bH-pyrido[2,1-a]isoquinolin-2-yI]methyl (1S,4S)-2,5-diazabicyclo[2.2.1]heptane-2-carboxylate] | – | < 10 | + | – | –
COc1cc2c(cc1OC)C1CC(O)C(CC(C)C)CN1CC2 [R,R,R-DHTBZ, 3-isobutyl-9,10-dimethoxy-1,3,4,6,7,11b-hexahydro-2H-pyrido[2,1-a]isoquinolin-2-ol, reference compound] | primarily metabolized by demethylation | – | – | – | –
^3H-dihydrotetrabenezine | – | – | – | – | 2.6

— patent US11053242B2, “[9,10-dimethoxy-3-(2-methylpropyl)-1H,2H,3H,4H,6H,7H,11BH-pyrido-[2,1-a]isoquinolin-2-yl]methanol and compounds, compositions and methods relating thereto” (Neurocrine Biosciences, Inc., priority 2015, dated 2021)
